Reference: patent US12589087B2, “Enantiomer selective action on neurotransmission” (The Board of Trustees of the Leland Stanford Junior …, priority 2021, dated 2026)

Experiments:
[1] = tested on: mouse cerebral synaptosomes; experiment: Potassium-induced neurotransmitter release assay; type: cell-based; conditions: preloaded with 100 μM for 15 min at 37° C., high-potassium depolarization
Protocol: To each tube, 2.5 μL of a test compound solution (final concentration 100 μM) in Buffer KRP or Buffer KRP alone were added. Samples were incubated for 15 min at 37° C., briefly chilled on ice, and then immediately centrifuged and washed twice with Buffer KRP. The resulting pellets were then resuspended in either Buffer KRP (500 μL) or Buffer K-KRP (500 μL). Samples were immediately centrifuged or incubated for 5, 10 or 15 min at 37° C., then centrifuged and washed with Buffer KRP. Resulting pellets were resuspended in 400 μL of 60% ACN containing 2.5 μM Glu-d5 and 2.5 μM Gln-d5 as internal standards.
Synaptosome uptake and high potassium-induced release assays were performed as described in Example 1. Uptake assays used 250 μL aliquots of the synaptosome suspension transferred to a pre-chilled 0.8 mL 96 well plate. 5 μL of a test compound solution (0.5 mM; final concentration: 10 μM to compare directly to our previous work was added to each well and incubated at 0° C. or 37° C. After 10, 20 or 30 min, samples were chilled on ice and immediately sedimented (2,500 g for 15 min at 4° C.) and washed with Buffer S (0.5 mL, ×2). Resulting pellets were resuspended in 200 μL of 60% ACN containing 5 μM GABA-d6 and stored at −80° C. until analysis. Potassium-induced release assay used 500 μL aliquots of the synaptosome suspension transferred to pre-chilled microcentrifuge tubes. 2.5 μL of a test compound solution (20 mM; final concentration: 100 μM) in Buffer KRP was added to each tube and incubated for 15 min at 37° C., briefly chilled on ice, and then immediately sedimented (8,000 g for 4 min at 4° C.) and washed with Buffer KRP, followed by centrifugation, twice. The resulting pellets were resuspended in 500 μL of Buffer KRP or Buffer K-KRP and incubated for 5, 10 or 15 min at 37° C., sedimented (8,000 g for 4 min at 4° C.), and washed with Buffer KRP. Resulting pellets were resuspended in 400 μL of 60% ACN containing 2.5 μM GABA-d6 as internal standard and stored at −80° C. until analysis.

GABAB nonsel = experiment: radioligand binding inhibition assay; conditions: rat, 100 μM
Protocol: Nonspecific AMPA, kainate and NMDA binding assays were performed by Eurofins Discovery (Cerep) using rat cerebral cortex membranes and radiolabeled [^3H]AMPA, [^3H]kainic acid and [^3H]CGP 39653, respectively. All compounds were tested at a single concentration of 100 uM in triplicate. mGluR1, mGluR2, mGluR5 and GABAB binding assays were performed by Eurofins Discovery. mGluR1 assay was performed using rat cerebellum membranes and radiolabeled [^3H]quisqalic acid. mGluR2 assay was performed using recombinant Chem-1 cells and [^3H]LY341495. mGluR5 and GABAB binding assays were performed using recombinant CHO-K1 cells and […], respectively. All compounds were tested at a single concentration of 100 uM in triplicate.

[2] = tested on: mouse hippocampal slice cultures; experiment: Kainic acid neurodegeneration in hippocampal slice cultures (propidium iodide); type: cell-based
Protocol: We employed a standard technique of ex vivo experimentation to determine the efficacy of 2MeGlu, 2MeGln, and 4APA to prevent neurodegeneration. Mouse hippocampal slice cultures were prepared and then exposed to one of the three test compounds at either 5 or 50 μM for one hour. Then media was changed to contain either 2 or 5 μM kanic acid (KA) for 24 hr. […] After 24, the amount of neurodegeneration was assayed with propidium iodide staining. Increasing the dose of KA led to greater neurodegeneration at 5 μM than at 2 μM.

Line 61 mice = experiment: Transgenic α-synuclein mouse model, tapered beam test; type: in vivo
From the text: Line 61 mice overexpress human α-synuclein under control of the mouse Thy-1 promoter. The transgene is X-linked so females have variable transgene expression; for this reason, we focused on male mice. […] Categorical data from the tapered beam task were unblinded and analyzed by X square test (P<0.005).

MPTP model of PD = experiment: MPTP model of PD, fine motor kinematic score; type: in vivo, mouse; conditions: 50 mg/kg/d IP, days −5 to 14
Protocol: Five groups of mice were treated with 40 mg/kg/d MPTP IP on days 1 and 2 and two concentrations of two test agents IP from days −5 to day 14 (FIG. 22). One group received vehicle, two groups received 5 or 50 mg/kg/d S-2MeGlu, and two groups received 5 or 50 mg/kg/d R-4APA. […] The high-precision fine motor kinematic protocol quantifies over 100 indices of gait and balance and integrates them into an overall kinematic score; higher score indicates greater impairment. […] Mice were sacrificed on day 15 and striatal dopamine as well as its major metabolites were quantified by HPLC with electrochemical detection.

Row | Compound | potassium-induced release from synaptosomes [1] | % of radioligand binding inhibition (GABAB nonsel) | reduction of neurodegeneration ([2]; 50 μM compound, lower dose of KA (2 μM)) | neuroprotection at the higher dose of KA ([2]; 5 or 50 μM compound, 5 μM KA) | body weight or deaths (Line 61 mice; 5 or 50 mg/kg/d IP, seven days) | motor function, tapered beam (Line 61 mice; 7 days IP, high dose (50 mg/kg/d) S-2MeGlu, either dose (5 or 50 mg/kg/d) R-4APA) | α-synuclein accumulation in brain by immunohistochemistry vs vehicle (Line 61 mice; Line 61 mice) | rescue of motor deficit from MPTP (overall kinematic score) (MPTP model of PD)
1 | C[C@@](N)(CCC(=O)O)C(=O)O [(R)-2MeGlu, (R)-2-methylglutamic acid] | not significantly altered by depolarization | 5% | – | – | – | – | – | –
2 | CC(N)(CCC(N)=O)C(=O)O (racemic) [rac-2MeGln, rac-2-methylglutamine] | – | – | approximately 50% | Neither dose of 2MeGlu or 2MeGln was neuroprotective | – | – | – | –
3 | C[C@](N)(CCC(=O)O)C(=O)O [(S)-2MeGlu, (S)-2-methylglutamic acid] | released upon depolarization | 5% | – | – | no change in body weight or deaths | improved motor function similar to WT mice | no significant change | significantly rescued the motor deficit from MPTP
